Experimental findings from the supplement of paper PMC10307832 are described below.

Assay in all cases: relative viability (nuclei count vs DMSO), 5 days (fraction); higher = more cells survive
Compound in assay [1]: CN[C@@H]1C[C@H]2O[C@@](C)([C@@H]1OC)n1c3ccccc3c3c4c(c5c6ccccc6n2c5c31)C(=O)NC4 [Staurosporine] + Cc1nc(Nc2ncc(C(=O)Nc3c(C)cccc3Cl)s2)cc(N2CCN(CCO)CC2)n1 [Dasatinib] (partner 0.075 µM)
The procedure, abridged:
(§1)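 Dosing by pin tool came one day after lung cancer cell lines were seeded in 1536-well plates, using either one drug or a fixed anchor-drug dose plus five library-drug doses (not always all listed) in √10 steps. After 5 days, nuclei were counted on 4× images. Relative viability is treated-well nuclei count divided by vehicle-well nuclei count, and values are medians of duplicate plates.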

Compound in assay [2]: O=c1[nH]cc(F)c(=O)[nH]1 [5-Fluorouracil] + N=C(N)NC(=N)NCCc1ccccc1 [Phenformin] (partner 250 µM)
The procedure, abridged:
as §1

Compound in assay [3]: CN[C@@H]1C[C@H]2O[C@@](C)([C@@H]1OC)n1c3ccccc3c3c4c(c5c6ccccc6n2c5c31)C(=O)NC4 [Staurosporine] + CC(C)C[C@H](NC(=O)[C@H](Cc1ccccc1)NC(=O)c1cnccn1)B(O)O [Bortezomib] (partner 0.002 µM)
In a few lines:
as §1

Compound in assay [4]: CC1=C(CC(=O)O)c2cc(F)ccc2/C1=C\c1ccc([S+](C)[O-])cc1 [Sulindac] + O=C(CCCCCCC(=O)Nc1ccccc1)NO [Vorinostat] (partner 1 µM)
The procedure, abridged:
as §1

Turning to UMC-11, the relative viability in assay [1] (first compound 0.005 µM) is 0.508; in assay [1] (first compound 0.05 µM) it was 0.149; in assay [1] (first compound 0.1581 µM), 0.114; in assay [1] (first compound 0.5 µM) it was 0.0934; in assay [2] (first compound 0.02 µM), 0.368; in assay [2] (first compound 0.2 µM) it was 0.308. For the same cell line, the relative viability in assay [2] (first compound 0.6325 µM) came out at 0.326; in assay [2] (first compound 2 µM) it was 0.339; in assay [3] (first compound 0.005 µM), 0.664; in assay [3] (first compound 0.01581 µM), 0.131; in assay [3] (first compound 0.05 µM), 0.454; in assay [3] (first compound 0.1581 µM), 0.0878. Moreover, the relative viability in assay [3] (first compound 0.5 µM) was found to be 0.0678; in assay [4] (first compound 0.08 µM), 0.342; in assay [4] (first compound 0.253 µM), 0.411; in assay [4] (first compound 0.8 µM), 0.374; in assay [4] (first compound 2.53 µM) it was 0.338; in assay [4] (first compound 8 µM), 0.386.
